≈ marks a conversion by molar mass, not a printed value. Where “and” joins values, the source holds several entries; their conditions need not be identical. Identical values can stand only once. Like-named read-outs stand apart in the source and are kept apart here.
How the values were obtained:
S. aureus UC® No. 9213 = assay: Murine Assay: in vivo antimicrobial activity, survival of infected mice; parameters: species or system Staphylococcus aureus; details: survival over six days; for ED50: Staphylococcus aureus, oral treatment one hour and five hours after infection, probit analysis
Description: Antimicrobial activity was tested in vivo using the Murine Assay procedure. Groups of female mice (six mice of 18-20 grams each) were injected intraperitoneally with Staphylococcus aureus bacteria which were thawed just prior to use and suspended in brain heart infusion with 4% brewers yeast (Staphylococcus aureus) or brain heart infusion (Streptococcus species). Antibiotic treatment at six dose levels per drug was administered one hour and five hours after infection by either oral intubation or subcutaneous routes. Survival was observed daily for six days. ED50 values based on mortality ratios were calculated using probit analysis. The subject compounds were compared against vancomycin as a control.

M. tuberculosis 91-2225 = assay: In vitro MIC by standard dilution method, M. tuberculosis; assay type: cell-based; details: Mycobacterium tuberculosis, 912225; lowest concentration required to kill the organism or inhibit its growth in vitro; visual observation
[1] = test system: M. tuberculosis (Erdman strain); assay: In vivo antimycobacterial activity, organ counts in infected CD-1 mice; parameters: species or system Mycobacterium tuberculosis; details: CD-1 mice infected intravenously with 1 x 10^7 M. tuberculosis
Description: The in vivo data for Table 3 was obtained from CD-1 mice infected intravenously with 1 x 10^7 viable M. tuberculosis (Erdman strain). Twenty-four hours later drug treatment was initiated. All the drugs were given by oral gavage twice daily for four weeks. At the end of therapy, viable cell counts were determined from homogenates of spleens and lungs.

M. avium LPR = assay: In vitro MIC by standard dilution method, M. avium LPR; details: Mycobacterium avium, read-out: MIC M. avium LPR
Description: (§1) The in vitro activity reported in Table 2 was conducted by standard dilution methods known to those skilled in the art. Briefly, serial two-fold dilutions of antibiotic are prepared in a diluent, and a standard volume of mycobacterial growth medium is added to drug aliquot. The medium is inoculated with a standardized mycobacterial cell suspension, and then incubated under appropriate conditions. Following incubation, the Minimal Inhibitory Concentration (MIC) is determined by visual observation. The MIC is defined as the lowest drug concentration (in µg/ml) required to inhibit mycobacterial growth.

M. avium Lowell Young = assay: In vitro MIC by standard dilution method, M. avium Lowell Young; details: Mycobacterium avium, read-out: MIC M. avium Lowell Young
Description: as §1

[2] = UC9213, po, 144 h, read-out: ED50 (mg/kg) Example, PO, female mice infected intraperitoneally
[3] = 100 mg/kg by oral gavage twice daily for four weeks
[4] = UC9213, 144 h, female mice infected intraperitoneally, read-out: ED50 (mg/kg) Example, PO
[5] = positive control, 25 mg/kg orally twice daily for four weeks

For `CC(=O)NC[C@H]1CN(c2ccc(N3CCSCC3)c(F)c2)C(=O)O1` [Example 1, (S)-N-[[3-[3-fluoro-4-(4-thiomorpholinyl)phenyl]-2-Oxo-5-oxazolidinyl]methyl]acetamide], the ED50 (S. aureus UC® No. 9213; [2]) was 1.25 mg/kg, the MIC (M. tuberculosis 91-2225) was 0.5 µg/mL (≈ 1.41 µM) and the “Log10 Colony-Forming Units of Mycobacterium tuberculosis Per Organ, Lung” value [1, 3] was 3.59. The “Log10 Colony-Forming Units of Mycobacterium tuberculosis Per Organ, Spleen” value [1, 3] was 4.61, the MIC (M. avium LPR) was 4 µg/mL (≈ 11.3 µM) and the MIC (M. avium Lowell Young) was 1 µg/mL (≈ 2.83 µM).
`CC(=O)NC[C@H]1CN(c2cc(F)c(N3CCOCC3)c(F)c2)C(=O)O1` [Example 4] was tested, and the ED50 (S. aureus UC® No. 9213; [2]) was 5.5 mg/kg, the “Log10 Colony-Forming Units of Mycobacterium tuberculosis Per Organ, Lung” value [1, 3] was 5.03 and the “Log10 Colony-Forming Units of Mycobacterium tuberculosis Per Organ, Spleen” value [1, 3] was 5.24.
In the case of `COC(=O)NC[C@H]1CN(c2ccc(N3CCOCC3)c(F)c2)C(=O)O1` [Example 9], the ED50 (S. aureus UC® No. 9213; [4]) is reported as 4.4 mg/kg.
Work on `O=C(NC[C@H]1CN(c2ccc(N3CCOCC3)c(F)c2)C(=O)O1)C(Cl)Cl` [Example 10] yielded an ED50 (S. aureus UC® No. 9213; [4]) of 6.8 mg/kg.
Work on `CC(=O)NC[C@H]1CN(c2ccc(N3CC[S+]([O-])CC3)c(F)c2)C(=O)O1` [Example 3, (S)-N-[[3-[3-fluoro-4-(1-oxothiomorpholin-4-yl)phenyl]-2-oxo-5-oxazolidinyl]methyl]acetamide] yielded an ED50 (S. aureus UC® No. 9213; [4]) of 3.4 mg/kg.
`CC[C@H]1OC(=O)[C@H](C)[C@@H](O[C@H]2C[C@@](C)(OC)[C@@H](O)[C@H](C)O2)[C@H](C)[C@@H](O[C@@H]2O[C@H](C)C[C@H](N(C)C)[C@H]2O)[C@](C)(O)C[C@@H](C)CN(C)[C@H](C)[C@@H](O)[C@]1(C)O` [AZITHROMYCI N, azithromycin, reference compound] was tested, and the MIC (M. avium LPR) was 8 µg/mL (≈ 10.7 µM) and the MIC (M. avium Lowell Young) was 4 µg/mL (≈ 5.34 µM).
`O=CNC[C@H]1CN(c2ccc(N3CCOCC3)c(F)c2)C(=O)O1` [Example 8] gave an ED50 (S. aureus UC® No. 9213; [4]) of 12.4 mg/kg.
In the case of `CN[C@H](CC(C)C)C(=O)N[C@H]1C(=O)N[C@@H](CC(N)=O)C(=O)N[C@H]2C(=O)N[C@H]3C(=O)N[C@H](C(=O)N[C@H](C(=O)O)c4cc(O)cc(O)c4-c4cc3ccc4O)[C@H](O)c3ccc(c(Cl)c3)Oc3cc2cc(c3O[C@@H]2O[C@H](CO)[C@@H](O)[C@H](O)[C@H]2O[C@H]2C[C@](C)(N)[C@H](O)[C@H](C)O2)Oc2ccc(cc2Cl)[C@H]1O` [Vancomycin, vancomycin, reference compound], the “ED50 (mg/kg) Vancomycin, SC” value (S. aureus UC® No. 9213; vancomycin control run alongside the example of the same row, female mice infected intraperitoneally, subcutaneous treatment one hour and five hours after infection, 8640 min) is reported as 2.0 mg/kg and 3.9 mg/kg.
For `CC(=O)NC[C@H]1CN(c2ccc(N3CCOCC3)c(F)c2)C(=O)O1` [Example 5], the ED50 (S. aureus UC® No. 9213; [4]) was 5.6 mg/kg.
With `CC(=O)NC[C@H]1CN(c2ccc(N3CCS(=O)(=O)CC3)c(F)c2)C(=O)O1` [Example 2, (S)-N-[[3-[3-fluoro-4-(1,1-dioxothiomorpholin-4-yl)phenyl]-2-oxo-5-oxazolidinyl]methyl]acetamide] the ED50 (S. aureus UC® No. 9213; [2]) was 2 mg/kg, the MIC (M. tuberculosis 91-2225) was 0.5 µg/mL (≈ 1.3 µM) and the MIC (M. avium LPR) was 4 µg/mL (≈ 10.4 µM). For the same compound, the MIC (M. avium Lowell Young) was 2 µg/mL (≈ 5.19 µM).
With `NNC(=O)c1ccncc1` [ISONIAZID, Isoniazid, reference compound] the MIC (M. tuberculosis 91-2225) was at most 0.015 µg/mL, the “Log10 Colony-Forming Units of Mycobacterium tuberculosis Per Organ, Lung” value [1, 5] was 3.81 and the “Log10 Colony-Forming Units of Mycobacterium tuberculosis Per Organ, Spleen” value [1, 5] was 4.36.
